# Source: ChEMBL document CHEMBL1157539, “Thousands of chemical starting points for antimalarial lead identification” (Nature, 2010)
# Tested on: Plasmodium falciparum
# Assay: GSK_TCMDC: Inhibition of Plasmodium falciparum 3D7 in whole erythrocytes, using parasite LDH activity as an index of growth.
# Assay type: functional, organism-based
# Conditions: Plasmodium falciparum, 3D7
row,Structure (SMILES),XC50
1,Cc1nc2c(s1)c(=O)cc(CCc1cccc(F)c1F)n2CC(=O)N(Cc1ccc(-c2ccc(C(F)(F)F)cc2)cc1)C1CCN(C(C)C)CC1,767 nM
2,CCNc1cc(C(=O)N[C@@H](Cc2ccccc2)[C@H](O)CNC2CCCC2)cc(N2CCCC2=O)c1,83.4 nM
3,O=C(/C=C/c1cccc(C(F)(F)F)c1)NCCCCCN1CCC(c2c[nH]c3ccccc23)CC1,836 nM
4,COC(=O)c1cc(C(O)CNC(C)CCCc2ccccc2)ccc1O (centres undefined),742 nM
5,Nc1nc(N)c2c(ccc3c2ccn3Cc2ccc(F)cc2)n1,6.53 nM
6,CC[C@H]1CN2CC[C@@H]1C[C@H]2[C@H](O)c1cc(-c2cc(Cl)cc(Cl)c2)nc2ccc(OC)cc12,235 nM
7,CC(C)CCNc1nc(NCCc2ccccc2)c2cc(O)ccc2n1,238 nM
8,Cc1ccc(NC(C)C(=O)Nc2ccc(C#N)cc2)cc1S(=O)(=O)N1CCCCC1 (centres undefined),545 nM
9,Cc1ccc(Cn2cnc(N3CC(C)NC(C)C3)cc2=O)cc1NC(=O)Nc1ccc(-c2ccccc2)cc1 (centres undefined),851 nM
10,CCNc1cc(-c2cccc(OC)c2)nc(Nc2ccc(F)cc2)n1,1270 nM
11,Cc1cc(NCc2ccc(F)cc2)nc2cc(O)ccc12,762 nM
12,FC(F)(F)c1ccc2[nH]ccc(=NN=CC=Cc3ccccc3)c2c1,1020 nM
13,CC(C)(C)C(=O)Nc1ccccc1Oc1ccc(Cl)cc1,7.48 nM
14,CCn1c(-c2nonc2N)nc2c(-c3cccc(NC(=O)Nc4ccc(C(F)(F)F)cc4)c3)ncc(OCCCN)c21,1050 nM
15,O=[N+]([O-])c1ccc(Oc2c(Cl)cc(S(=O)(=O)NC3CCC(CN4CCC(c5c[nH]c6ccccc56)CC4)CC3)cc2Cl)c(Cl)c1 (centres undefined),758 nM
16,Cc1ccc(CN2CCC(Oc3cccc(NC(=O)c4ccc(C(F)(F)F)cc4)c3)CC2)cc1,1020 nM
17,COc1ccc(Cn2c(N3CCN(S(=O)(=O)c4ccc(OC)cc4)CC3)nc3c2c(=O)n(CC2CC2)c(=O)n3CC2CC2)cc1,892 nM
18,Fc1ccccc1C=NN=c1cc[nH]c2ccc(C(F)(F)F)cc12,871 nM
19,COc1cc2c(cc1C(F)(F)F)N(C(=O)Nc1cccc(-c3ccc(CN(C)C)cc3)c1)CC2,710 nM
20,CN(C)Cc1cccc(CNC(=O)c2sccc2OCc2ccc(Cl)cc2)c1,835 nM
21,N#Cc1cccc(NC(=O)c2ccc(S(=O)(=O)NCC3CCCN3CC3CCCCC3)cc2)c1 (centres undefined),1050 nM
22,Nc1c2c(nc3ccc(C(=O)Nc4ccc(Br)cc4)cc13)CCCC2,149 nM
23,Nc1nc(N)c2c(ccc3c2ncn3Cc2ccccc2)n1,93.4 nM
24,CCCCCCCc1c(C)nc2c(OC)cccc2c1O,921 nM
25,COc1ccc(CNCc2ccc(-c3ccc(-c4nc5cc(C(F)(F)F)ccc5[nH]4)cc3)cc2)cc1,135 nM

row,Structure (SMILES),XC50
1,Cc1cccc(-n2c(Nc3ccc(C)c(Cl)c3)nc3ccc(S(=O)(=O)NC(C)C(C)C)cc32)c1 (centres undefined),648 nM
2,COc1ccc2cc(-c3nc(-c4c(Cl)cccc4Cl)[nH]c3-c3ccnc(NCCCN4CCCCC4C)c3)ccc2c1 (centres undefined),948 nM
3,CNCC(O)c1cc(Cl)c(Cl)cc1C (centres undefined),922 nM
4,c1ccc(Oc2ccc(Nc3ccnc4cc(-c5csc(CNCCN6CCOCC6)n5)ccc34)cc2)cc1,708 nM
5,O=C(NCc1ccc(C(F)(F)F)cc1)c1cccc(-c2nnc(-c3cccc(-c4cncnc4)c3)o2)c1,544 nM
6,Cc1cccc(C(=O)Nc2ccnc(N3CCC(N(C)Cc4ccc(C#N)cc4)CC3)c2)c1,912 nM
7,CN(C)c1ccc(CN2CCCCC(NC(=O)c3cc(-c4ccccc4Cl)cs3)C2)cc1 (centres undefined),1060 nM
8,COc1cccc2[nH]c(NCCCNCc3cc(Br)cc(Br)c3)nc12,950 nM
9,CC(CN(C)C)C(=O)Nc1ccc(-c2cccc(-c3nc4ccccc4[nH]3)c2)cc1 (centres undefined),722 nM
10,COc1ccc(CNc2ccnc3cc(OC)ccc23)cc1,766 nM
11,Cc1ccccc1CCNC(=O)c1ccc(N2CCN(c3ccncc3)CC2)nc1,1390 nM
12,CCNc1cc(C(=O)N[C@@H](Cc2ccccc2)[C@H](O)CNCc2cccc(-c3cncnc3)c2)cc(N2CCCC2=O)c1,663 nM
13,NC1=NC2(CCCC2)N(c2ccc(Cl)cc2)C(N)=N1,414 nM
14,Cc1cccc(Nc2c(-c3cc(Br)ccc3O)nc3ncccn23)c1,206 nM
15,COc1ccc(C2CC(=O)C3=C(C2)NC(C)=C(C(=O)OC(C)C)C3c2cccc(O)c2)cc1OC (centres undefined),785 nM
16,N=C(N)c1ccc2[nH]c(SCc3ccccc3)nc2c1,687 nM
17,CC[C@H]1CN2CC[C@@H]1C[C@H]2[C@H](O)c1cc(N2CCC(N3CCCCC3)CC2)nc2ccc(OC)cc12,267 nM
18,CN(C)CCOc1cc(NC(=O)c2ccc(-c3ccc(Cl)cc3Cl)cc2)ccc1-c1ccccc1,906 nM
19,CS(=O)(=O)Cc1ccc(Nc2nccc(-c3c(-c4cccc(C(=O)Nc5c(F)cccc5F)c4)nn4ccccc34)n2)cc1,532 nM
20,CCc1cc(OC)c(C(=O)NC2CCN(C[C@H](O)c3ccnc4ccc(OC)cc34)CC2)cc1Br,815 nM
21,CCCCNCc1ccc(OCc2cccc(COc3ccc(CNCCCC)cc3)c2)cc1,318 nM
22,CC(C)Cn1cc2c(ccc3nc(N)nc(N)c32)n1,303 nM
23,Cc1cc(Cc2ccc(S(=O)(=O)c3cc4c(cc3O)CCN(C)CC4)cc2)ccc1Cl,911 nM
24,CC(=O)Nc1nc(C(=O)Nc2cccc(-c3ccc(-c4nc5cccc(C)c5[nH]4)cc3)c2)cs1,232 nM
25,COCCNCc1ccc(-c2ccc(CN(C(=O)Nc3ccccc3)C3CCN(Cc4ccccc4)CC3)cc2)cc1,746 nM

row,Structure (SMILES),XC50
1,Cc1ccccc1C1CCN(C2CCC(NC(=O)C3=Cc4ccccc4OC3)CC2)CC1 (centres undefined),935 nM
2,COc1ccc(NC(=O)/C=C/c2ccccc2Cl)cc1OCCN1CCC(N2CCCCC2)CC1,901 nM
3,CCN(CC)CCNc1nc(C=Cc2ccc(Cl)cc2)nc2cc3ccccc3cc12,147 nM
4,COc1ccc(CC(=O)NC2CCN(c3ccnc4cc(Cl)ccc34)C2)cc1 (centres undefined),241 nM
5,CS(=O)(=O)CCNCc1ccc(-c2ccc3c(Nc4ccc(F)cc4Cl)ccnc3c2)o1,744 nM
6,COc1ccc(CNC2CCN(C)CC2)cc1-c1ccc(S(=O)(=O)NCc2ccccc2)c(C)c1,992 nM
7,COc1cc(-n2cnc3cc(-c4ccc(Cl)cc4)sc3c2=O)ccc1OCCN1CCC(c2cccc(NC(C)=O)c2)CC1,553 nM
8,Cc1ccc2[nH]c(C)cc(=NN=Cc3ccc(Cl)cc3)c2c1,992 nM
9,Oc1ccc(Br)cc1-c1nc2ccc(Cl)cc2nc1-c1cc(Br)ccc1O,789 nM
10,O=C(NCCN1CCOCC1)c1ccc(O)c(-c2cccc(C(F)(F)F)c2)c1,752 nM
11,CCCOc1ccc(N2C(N)=NC(N)=NC2(C)C)cc1,487 nM
12,CN1CCN(c2ccc(Nc3ncc(Cl)c(Nc4cccnc4C(N)=O)n3)cc2)CC1,153 nM
13,OC1CCCN(Cc2ccc(-c3ccc(-c4nc5cc(F)ccc5[nH]4)cc3)cc2)C1 (centres undefined),854 nM
14,Cc1ccc(O)cc1Nc1c(C(N)=O)cnc2ccc(-c3cncs3)cc12,670 nM
15,COc1cc2nc(N3CCC(CNC(=O)c4cc(Br)c(Br)s4)CC3)nc(N)c2cc1OC,707 nM
16,CCOc1cc2ncnc(Nc3ccc(OCc4ccccc4OC)c(OC)c3)c2cc1OCC,879 nM
17,CC(ON1C(N)=NC(N)=NC1(C)C)c1ccccc1 (centres undefined),10.9 nM
18,Fc1ccc2[nH]c3c(NCCCN4CCOCC4)ncnc3c2c1,714 nM
19,O=C(NCCN1CCC(c2ncc(-c3ccccc3)o2)CC1)c1ccc(NC(=O)c2ccc(Cl)cc2)cc1,244 nM
20,COc1ccc2c(=NN=C(C)c3ccccn3)cc(C)[nH]c2c1,722 nM
21,COc1cccc(Nc2nccc(NCC(O)c3ccc(C(F)(F)F)cc3)n2)c1 (centres undefined),659 nM
22,C=CCn1c(C)cc(C(=O)COc2ccc(S(=O)(=O)N3CCOCC3)cc2[N+](=O)[O-])c1C,1110 nM
23,CN1CCN(c2cc(NC(=O)Nc3ccc(-c4ccncc4)c(Cl)c3)ccc2Br)CC1,899 nM
24,CCOC(=O)C(NC(=O)Cc1ccccc1)C(C)C (centres undefined),295 nM
25,O=C(NC1CC1)c1cnc(N2CCC(OCc3ccccc3)CC2)c(Cl)c1,1400 nM

row,Structure (SMILES),XC50
1,CC(C)(C)C1CC(=O)CC2C(=O)N(c3ccc(Br)cc3)C(=O)C21 (centres undefined),934 nM
2,Fc1cccc(-c2ccc3c(c2)CC(NCc2c[nH]c4cnccc24)C3)c1 (centres undefined),480 nM
3,Cc1ccc(F)cc1-c1cc(N2CCCN(C(=O)c3ccc(Br)o3)CC2)ncn1,1430 nM
4,Cc1ccc(NS(=O)(=O)c2ccc(-c3ccccc3)cc2)c(Cn2cnc(N3CCCNCC3)cc2=O)c1,859 nM
5,CS(=O)(=O)c1ccc(-c2cnc(N)c(-c3cccc(CO)c3)c2)cc1,939 nM
6,CCn1ccc2c3c(N)nc(N)nc3ccc21,313 nM
7,CC1CN(c2cnn(Cc3cccc(NC(=O)Nc4cccc(C(F)(F)F)c4)c3)c(=O)c2Cl)CC(C)N1 (centres undefined),818 nM
8,O=C(/C=C/c1ccc(Cl)cc1Cl)N1CCC(CCN2CCC(c3c[nH]c4ccccc34)CC2)CC1,796 nM
9,CC(=O)N1c2ccccc2C(C)=CC1(C)C,938 nM
10,O=C(Nc1ccc(Cn2ncc(N3CCCNCC3)c(Cl)c2=O)cc1)Nc1ccc(SC(F)(F)F)cc1,529 nM
11,O=C(CSc1nc2ccccc2c(=O)n1CC1CCCO1)Nc1cc(C(F)(F)F)ccc1Cl (centres undefined),229 nM
12,Cc1[nH]c2ccccc2c(=O)c1Br,843 nM
13,O=C(Nc1ccc(F)cc1)NC1CCN(c2ccnc3ccccc23)C1 (centres undefined),873 nM
14,COc1ccc(C23Oc4cc(OC)cc(OC)c4C2(O)C2(CC3c3ccccc3)SCCCS2)cc1 (centres undefined),124 nM
15,N#Cc1cccc(NC(=O)Nc2cccc(-c3cccc(-c4nc5ccccc5[nH]4)c3)c2)c1,90.2 nM
16,CN1CCCN(Cc2cccc(-c3ccc(NC(=O)c4ccc(Cl)cc4)cc3)c2)CC1,720 nM
17,O=C(Nc1ccc(-c2cccc(-c3nc4cc(C(F)(F)F)ccc4[nH]3)c2)cc1)c1cccnc1,725 nM
18,Nc1ccn([C@@H]2O[C@H](COC(c3ccccc3)(c3ccccc3)c3ccccc3)[C@@H](O)[C@@H]2O)c(=O)n1,834 nM
19,NS(=O)(=O)c1ccc(Nc2nccc(-c3c(-c4cccc(NC(=O)c5c(F)cccc5F)c4)nn4ccccc34)n2)cc1,762 nM
20,COc1ccc(Br)cc1C1Nc2ccc3ccccc3c2C2=C1C(=O)CC(c1ccccc1)C2 (centres undefined),590 nM
21,Cc1ccc(NC(=O)c2ccc(CN3CCCN(CC4CCCCC4)CC3)cc2)cc1F,290 nM
22,Cc1cccc2nc(-c3ccc(-c4cccc(CN5CCC(CCN6CCCCC6)CC5)c4)s3)[nH]c12,140 nM
23,c1cc(Nc2nc(-c3ccc(-c4csc(Nc5ccncc5)n4)cc3)cs2)ccn1,117 nM
24,COc1ccc(S(=O)(=O)NC2CCN(c3cc(C)nc(Nc4cccc(C#N)c4)n3)CC2)cc1,946 nM
